From publication PMC12194305, “Assessing Bioconcentration and Biotransformation of BDE-47 In Vitro: The Relevance of Bioavailable and Intracellular Concentrations” (Journal of Xenobiotics, 2025) come the findings set out here.

Values joined by “and” are separate entries in the source; they are usually repeats but may differ in a detail not shown here. Equal entries are not always repeated.

The nature of series [1]: Experimental determination of free bioavailable concentration (Cfree,exp) in exposure medium by SPME. It is filed as in vitro ADME. Conditions: for Cfree, exp: 28 °C, 72 h. How it is done:
In parallel with the exposure experiment for the evaluation of bioaccumulation and biotransformation described in the previous sections, an experiment was performed to estimate experimentally the free bioavailable concentration (Cfree,exp) in the test medium. For this purpose, an experiment was designed to simulate the test conditions, and Cfree was determined using solid-phase microextraction (SPME), following the fiber method developed by Henneberger et al..
PDMS-coated glass microfibers (30 µm thick, 13.19 µL/m coating volume) were cut into 1.5 cm pieces and cleaned in methanol for more than 24 h prior to the experiment, with the solvent replaced at least three times. The cleaned and dried fiber was placed in a glass vial with 1 mL of sample exposure medium containing 1.8 and 2.6 mg·L^−1 BDE-47. Three replicates were prepared for each condition. A portion of the initial sample was stored at −20 °C until analysis. The vials were then sealed and incubated with rotation at 28 °C for 72 h until equilibrium of BDE-47 distribution among the fiber, medium, and binding to the predominant serum protein of the culture (Bovine serum albumin, BSA) was reached. Once at equilibrium, the fibers were extracted from the vials and desorbed with 400 µL isooctane for 24 h with rotation. Finally, the extract was analyzed by GC-MS-µECD, as described in Section 2.5. The concentration of BDE-47 in the initial sample (Cmed,0h) and in the resulting media after equilibration (Cmed,eq) was determined according to the procedure described in Section 2.5, to confirm the actual mass balance.
Since this study evaluates and discusses the behavior of BDE-47 in comparison to observations from a previous study with phenanthrene, as explained in the introduction section, the experimental Cfree of phenanthrene was also determined, as it had not been measured previously. In this case, the difference in the process was that PA fibers (36 µm thick, 16.71 µL/m coating volume) were used. Samples of 10 and 20 mg·L^−1 PHE were prepared, and the fibers and samples were incubated for 24–48 h until equilibrium was reached, and desorbed with hexane for 3 h.
To determine the free concentration, concentration in the SPME fiber (Cfiber) was first estimated using Equation (1) from the concentration measured in the desorption extract (Cdes), the desorption volume (Vdes) and the coating volume of the fiber (Vfiber). This volume was estimated according to the coating volume and the length of the fiber.(1) Cfiber=Cdes·Vdes/Vfiber
Next, Cfree,exp was determined at the time before the SPME fiber was added to the system, according to Equation (2). For this, the concentration measured in the fiber equilibrated with the medium (PDMS-BDE-47-BSA or PA-PHE-BSA), the concentration measured in the initial sample (Cmed,0h), and the partition constant of the equilibrium formed between the fiber and the medium (log DPDMS/medium; BDE-47 = 5.84 [25]; log DPA/medium; PHE = 6.69 [26]) were used.(2) Cfree=Cmed,0h·Vsample/Dfiber/medium·Cmed,0h·Vsample/Cfiber−Vfiber

Series [2] is described as follows: Abiotic (volatilization) losses, contaminated medium without cells. The format is physicochemical. The protocol: A total of 2 × 10^6 ZFL cells were plated in P100 glass dishes and incubated for 24 h under standard culture conditions. Subsequently, the culture medium was replaced with a contaminated medium, which, according to the cell viability assay, maintained viability above 70% by the end of the exposure period (Section 2.3). Cells were exposed to 1.8 and 2.6 mg⋅L^−1 for 24, 48 and 72 h, in two independent experiments. Parallel experiments were conducted under identical conditions to assess losses: one set included cells without contaminated medium, and another consisted of contaminated medium without cells (“no cells”). The obtained pellets were collected from all exposure time, dried under a gentle stream of nitrogen and weighed on a precision analytical balance (±0.00001 g). Finally, the dried cell pellets and their corresponding medium collected at all exposure times, including the starting medium (“t = 0 h”), were stored at −20 °C until analysis.
One of the objectives was to assess whether cell lines can be used within the BCF-IVIVE model, relying on intrinsic clearance in vitro, to estimate the biotransformation rate which is subsequently extrapolated to adult fish. This approach is based on the model developed by Nichols et al. and is endorsed by the OECD guideline 319A [10] and OECD 2018a. Briefly, the log10-transformed substrate experimental concentrations in the medium (Cmed) were plotted against time, and the first-order elimination rate constant (ke, h^−1) was determined as −2.3 × slope of the log-linear decline. Black et al. indicate that a correction to the elimination rate constant (ke) should be applied when the following conditions are met: (i) abiotic losses from volatilization, calculated by comparing the recovery of negative control samples (“no cells”) at each exposure time to the initial time, fall outside the acceptable range of 80–120%, (ii) the loss process follows first order kinetics, and (iii) the ratio of ke and the volatilization rate constant (kvolat) is below 10 (ke/kvolat < 10). Then, the constant corrected for losses due to volatilization (ke,loss) was determined as −2.3 × the difference of the slopes of the sample and the loss control of the log-linear descent. The in vitro constant was then extrapolated to obtain an in vivo metabolization constant (kMET). This was done using experimental cell concentration (CHEP, 10^6 cells/mL) and default parameters derived from rainbow trout. In this study, in addition to estimating BCF with the official model parameters derived from rainbow trout (BCFIVIVE,RT), BCF was also estimated with the literature-derived parameters for zebrafish (BCFIVIVE,ZF), due to the use of ZFL cells. Finally, the BCF was estimated by the ratio of concentration in the organism to concentration in the medium, following the standardized model. The concentration in the organism was predicted using the one-compartment model given by Arnot and Gobas, which includes the rate constants describing chemical uptake (k1), loss through the gills (k2), fecal egestion (kE), growth rate (kG) and metabolization rate (kMET). Except for kMET, which is estimated experimentally in vitro, the rest are only dependent on the log KOW of the compound. On the other hand, due to the use of cell lines, the free concentration estimated was introduced instead of the total concentration in the medium (CW,TOT).

As for `Brc1ccc(Oc2ccc(Br)cc2Br)c(Br)c1` [BDE-47, 2,2′,4,4′-tetrabromodiphenyl ether], the “% Cfree, exp” value in series [1] (Cnom 1.8 mg·L^−1, % of total concentration) is 0.06% and 0.06 ± 0.03%; in series [1] (Cnom 2.6 mg·L^−1, % of total concentration), 0.08% and 0.079 ± 0.003%. Besides, the “Cfree, exp” value in series [1] (Cnom 1.8 mg·L^−1, PDMS fiber) was “(0.4 ± 0.2) µg·L^−1”; in series [1] (Cnom 2.6 mg·L^−1, PDMS fiber) it was “(1.14 ± 0.04) µg·L^−1”. Besides, the “Recovery of losses from volatilization (% Rec. Vol.)” value in series [2] (24h, 1.8 mg·L-1, no cells vs time 0h) is reported as 76%; in series [2] (24h, 2.6 mg·L-1, no cells vs time 0h) it was 73%; in series [2] (48h, 1.8 mg·L-1, no cells vs time 0h), 69%; in series [2] (48h, 2.6 mg·L-1, no cells vs time 0h), 63%; in series [2] (72h, 1.8 mg·L-1, no cells vs time 0h), 68%; in series [2] (72h, 2.6 mg·L-1, no cells vs time 0h), 52%. Further, the “decrease in Cmedium,no cells with respect to nominal concentration” value is recorded as 29% in series [2] (Cnominal 1.8 mg·L^−1, cell-free sample) and 37% in series [2] (Cnominal 2.6 mg·L^−1, cell-free sample).
